As usually defined, the Ki is a dissociation constant, usually derived from enzyme kinetics or from competition with a known ligand. As a reminder, the Kd is the equilibrium constant for the complex coming apart.

The target of this assay is Translocator protein (Rattus norvegicus, UniProt P16257). Kind of assay: Binding affinity constant for peripheral (mitochondrial) Benzodiazepine receptor.
Sequence of Translocator protein (P16257 whole entry, looked up): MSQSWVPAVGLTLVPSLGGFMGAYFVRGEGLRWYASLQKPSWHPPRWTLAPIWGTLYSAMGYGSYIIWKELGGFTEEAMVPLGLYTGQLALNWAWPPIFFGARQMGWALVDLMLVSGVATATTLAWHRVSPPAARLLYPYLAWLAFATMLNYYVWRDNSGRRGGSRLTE
In turn, `CN(C)C(=O)OC1=C(c2ccccc2)Sc2ccccc2-n2cccc21` returned a Ki of 9 nM.

For `C1=C(c2ccccc2)Sc2ccccc2-n2cccc21`, the Ki came to 3150 nM.

On to `COc1ccc(C2=C(OC(=O)c3cccnc3)c3cccn3-c3ccccc3S2)cc1`, for which the Ki is greater than 10 nM.

Turning to `CN1CCN=C(c2ccccc2)c2cc(Cl)ccc21` [MEDAZEPAM], the Kd is greater than 10 nM.

In turn, `CC(=O)OC1=C(c2ccc(Cl)cc2)Sc2ccccc2-n2cccc21` registered a Ki of 30 nM.

For the molecule `COC1=C(c2ccccc2)Sc2ccccc2-n2cccc21`, the affinity corresponds to a Ki of 7000 nM.

On to `COc1ccc(C2=C(OC(=O)c3cc(OC)c(OC)c(OC)c3)c3cccn3-c3cc(Cl)ccc3S2)cc1`, for which the Ki is greater than 10 nM.

For the molecule `COc1ccc(C2=C(OS(C)(=O)=O)c3cccn3-c3ccccc3S2)cc1`, the Ki was found to be 95 nM.
